Experimental data published in patent US8178506B2, “Oligomeric compounds and compositions for use in modulation of small non-coding RNAs” (Regulus Therapeutics Inc., priority 2003, dated 2012).
In the oligonucleotide strings, read from the 5' end, every base follows the letter of its sugar. An asterisk marks phosphorothioate; unmarked linkages are phosphodiester. Other units and linkages are bracketed, terminal groups are in braces. A string of capitals states the bases alone. e = 2'-O-(2-methoxyethyl) (MOE); [5mC] = 5-methylcytosine

How the values were obtained:
PPARγ = PPARγ mRNA expression in adipocytes (real-time PCR); type: cell-based, human; conditions: for PPAR gamma mRNA: differentiating adipocytes transfected with oligomeric compound, Table 75; for PPAR gamma (mRNA expression): adipocytes, 250 nM oligomeric compound, day nine post-transfection, relative to control (1.0)
aP2 = aP2 mRNA expression in adipocytes (real-time PCR); type: cell-based, human; conditions: for aP2 mRNA: differentiating adipocytes transfected with oligomeric compound, Table 75; for AP2 (mRNA expression): adipocytes, 250 nM oligomeric compound, day nine post-transfection, relative to control (1.0)
HSL = HSL mRNA expression in adipocytes (real-time PCR); type: cell-based, human; conditions: for HSL mRNA: differentiating adipocytes transfected with oligomeric compound, Table 75; for HSL (mRNA expression): adipocytes, 250 nM oligomeric compound, day nine post-transfection, relative to control (1.0)
adipocytes = assay: Triglyceride accumulation assay in adipocytes; type: cell-based, human
Glut4 = Glut4 mRNA expression in adipocytes (real-time PCR); type: cell-based, human; conditions: for GLUT4 mRNA: differentiating adipocytes transfected with oligomeric compound, Table 75; for Glut4 (mRNA expression): adipocytes, 250 nM oligomeric compound, day nine post-transfection, relative to control (1.0)
HuVECs = assay: Endothelial tube formation assay in HuVECs; conditions: 75 nM oligomeric compound
[1] = differentiating adipocytes transfected with oligomeric compound, Table 75
[2] = adipocytes, 250 nM oligomeric compound, relative to control (1.0), Table 15
[3] = adipocytes, 250 nM oligomeric compound, relative to control (1.0), Table 16

| Substance | PPAR gamma mRNA (PPARγ) | aP2 mRNA (aP2) | HSL mRNA (HSL) | TG (triglyceride accumulation) (adipocytes; [1]) | GLUT4 mRNA (Glut4) | % Activity Relative to UTC (tube formation) (HuVECs; Table 57) [%] | PPAR gamma (mRNA expression) (PPARγ; Table 15) | PPAR gamma (mRNA expression) (PPARγ; Table 16) | AP2 (mRNA expression) (aP2; Table 15) | AP2 (mRNA expression) (aP2; Table 16) | HSL (mRNA expression) (HSL; Table 15) | HSL (mRNA expression) (HSL; Table 16) | TG (triglyceride accumulation) (adipocytes; [2]) | TG (triglyceride accumulation) (adipocytes; [3]) | Glut4 (mRNA expression) (Glut4; Table 15) | Glut4 (mRNA expression) (Glut4; Table 16) | % Activity Relative to UTC (tube formation) (HuVECs; Table 58) [%] | % Activity Relative to UTC (tube formation) (HuVECs; Table 56) [%] |
| --- | --- | --- | --- | --- | --- | --- | --- | --- | --- | --- | --- | --- | --- | --- | --- | --- | --- | --- |
| 327899 (antisense e[5mC]*eA*eG*eT*eG*eA*eA*eT*eT*e[5mC]*eT*eA*e[5mC]*e[5mC]*eA*eG*eT*eG*e[5mC]*e[5mC]*eA*eT*eA) [compound 327899] | 62 percentage of untreated control (UTC) | 47 percentage of untreated control (UTC) | 27 percentage of untreated control (UTC) | 25 percentage of untreated control (UTC) | 14 percentage of untreated control (UTC) | 34.5 | – | – | – | – | – | – | – | – | – | – | – | – |
| 327925 (antisense eT*eA*eG*e[5mC]*eT*eG*eG*eT*eT*eG*eA*eA*eG*eG*eG*eG*eA*e[5mC]*e[5mC]*eA*eA) [compound 327925] | – | – | – | – | – | – | 0.60 | 0.83 | 0.77 | 0.77 | 0.78 | 0.75 | 0.72 | 0.63 | 1.99 | 0.61 | 44.4 | – |
| 327900 (antisense e[5mC]*eT*eG*e[5mC]*e[5mC]*eT*eG*eT*e[5mC]*eT*eG*eT*eG*e[5mC]*e[5mC]*eT*eG*e[5mC]*eT*eG*eT) [compound 327900] | 55 percentage of untreated control (UTC) | 32 percentage of untreated control (UTC) | 21 percentage of untreated control (UTC) | 26 percentage of untreated control (UTC) | 12 percentage of untreated control (UTC) | 55.2 | – | – | – | – | – | – | – | – | – | – | – | – |
| 327880 (antisense eA*e[5mC]*eA*eA*eA*eT*eT*e[5mC]*eG*eG*eT*eT*e[5mC]*eT*eA*e[5mC]*eA*eG*eG*eG*eT*eA) [compound 327880] | – | – | – | – | – | – | 0.53 | – | 0.97 | – | 0.80 | – | 0.52 | – | 1.11 | – | – | 57.1 |
| 327920 (antisense eG*eA*eG*eA*e[5mC]*e[5mC]*e[5mC]*eA*eG*eT*eA*eG*e[5mC]*e[5mC]*eA*eG*eA*eT*eG*eT*eA*eG*e[5mC]*eT) [compound 327920] | 34 percentage of untreated control (UTC) | 22 percentage of untreated control (UTC) | 14 percentage of untreated control (UTC) | 20 percentage of untreated control (UTC) | 0 percentage of untreated control (UTC) | 41.4 | – | – | – | – | – | – | – | – | – | – | – | – |
| 327887 (antisense eG*e[5mC]*eG*eA*e[5mC]*e[5mC]*eA*eT*eG*eG*e[5mC]*eT*eG*eT*eA*eG*eA*e[5mC]*eT*eG*eT*eT*eA) [compound 327887] | 81 percentage of untreated control (UTC) | 60 percentage of untreated control (UTC) | 53 percentage of untreated control (UTC) | 54 percentage of untreated control (UTC) | 43 percentage of untreated control (UTC) | – | – | – | – | – | – | – | – | – | – | – | – | 57.1 |
| 327895 (antisense eA*e[5mC]*eA*eA*eA*e[5mC]*eA*e[5mC]*e[5mC]*eA*eT*eT*eG*eT*e[5mC]*eA*e[5mC]*eA*e[5mC]*eT*e[5mC]*e[5mC]*eA) [compound 327895] | 86 percentage of untreated control (UTC) | 90 percentage of untreated control (UTC) | 88 percentage of untreated control (UTC) | 76 percentage of untreated control (UTC) | 76 percentage of untreated control (UTC) | – | – | – | – | – | – | – | – | – | – | – | – | 100.0 |
| 327893 (antisense eA*eA*e[5mC]*e[5mC]*eA*e[5mC]*eA*e[5mC]*eA*eA*e[5mC]*e[5mC]*eT*eA*e[5mC]*eT*eA*e[5mC]*e[5mC]*eT*e[5mC]*eA) [compound 327893] | – | – | – | – | – | – | – | 1.03 | – | 0.97 | – | 0.85 | – | 0.95 | – | 1.47 | – | 100.0 |
